Source: PubChem BioAssay AID1963425 (Molecular Pharmacology Branch, DTP, NCI, 2024)
pIC50: −log10 of the molar value.

System: 323965-272-R-J2-PDC complex spheroid growth, % test/control
Test: Anticancer human tumor 323965-272-R-J2-PDC patient-derived pancreatic carcinoma cell line growth inhibition [Asc]
Details: for pIC50: curve of first compound; for viability, T/C: stronger effect = lower value; active means viability on the fitted dose curve at most 10% of control; inactive means the rest
Protocol: Multicellular complex tumor spheroid response to apoptosis pathway targeting inhibitors Alrizomadlin, Pelcitoclax, and Dasminapant in combination with a variety of drugs and investigational agents in selected tumor cell lines
The MDM2 inhibitor alrizomadlin, the Bcl-2/Bcl-xL inhibitor pelcitoclax, and the IAPs inhibitor dasminapant were evaluated both individually and in combination with standard of care and investigational anticancer small molecules within a complex spheroid model of solid tumors. . Complex spheroids include a stromal component modeled by human endothelial cells (HUVEC) and fibroblasts modeled by human mesenchymal stem cells (MSCs). The concentration ranges selected for each drug and investigational agent were based upon clinically achievable concentrations if the clinical Cmax of the agent was known.
Compounds. The drugs and investigational agents: alrizomadlin (APG-115; NSC831270), pelcitoclax (APG-1252; NSC835773), dasminapant (APG-1387;NSC834197), TAK-243 (NSC785004), copanlisib (NSC809693), olaparib (NSC753686), talazoparib (NSC767125), cobimetinib (NSC 768068), eltanexor (KPT-8602, NSC 794443), abemaciclib (NSC 768073), sotorasib (NSC818433), adagrasib (NSC 831453), MRTX-1133 (NSC 836407), Iadademestat (ORY1001, NSC 806812), and RMC-4630 (NSC839698), were obtained from the NCI Developmental Therapeutics Program Chemical Repository. The FDA-approved anticancer drug set is available from the Developmental Therapeutics Program at https://dtp.cancer.gov/organization/dscb/obtaining/available plates.htm. […] The stock solutions were prepared in dimethyl sulfoxide (DMSO, Sigma-Aldrich, St. Louis, MO, cat. D2650) at 800-fold the tested concentration and stored at -70 degrees C prior to their use. All drugs and investigational agents were tested over a range starting from a high concentration at or near the clinical Cmax and decreasing in half-log increments. If the clinical Cmax for an agent had not been determined, the highest concentration tested was 10 microM.
The patient-derived cancer (PDC) cell lines include five colon adenocarcinomas: 186277-243-T-J2-PDC, 616215-338-R-J1-PDC, 439559-082-T-J2-PDC, 463943-066-T-J2-PDC, and 519858-162-T-J1-PDC; three pancreatic carcinomas: 323965-272-R-J2-PDC, 521955-158-R6-J3-PDC, and 521955-158-R2-J5-PDC; two uterine sarcomas: 327498-152-R-J2-PDC and 993429-296-R-J1-PDC; two rhabdomyosarcomas: 755483-174-R-J1-PDC and 772245-204-R-J1-PDC; two soft tissue sarcomas: 126254-015-R-J1-PDC and 494315-158-R-J1-PDC; two malignant fibrous histiocytomas: 317291-083-R-J1-PDC and 596521-263-R-J1-PDC; two breast carcinomas: 171881-019-R-J1-PDC and 885512-296-R-J2-PDC; and one ovarian carcinoma: 6556581-035-R-J-PDC were obtained from the NCI PDMR, (https://pdmr.cancer.gov). The established cell lines HSSY-2 synovial sarcoma (RRID:CVCL 8719), SYO-1 synovial sarcoma (RRID:CVCL_7146), MPNST malignant peripheral neural sheath tumor were obtained from the Sloan Kettering Institute. The following established cell lines were purchased from the American Type Culture Collection (ATCC, Manassas, VA), Sor the received from the NCI repository:, PANC-1 pancreatic carcinoma (CRL-1469, RRID:CVCL_0480), OVCAR-5 ovarian carcinoma (RRID:CVCL_1628), OVCAR-8 ovarian carcinoma (RRID:CVCL_1629), , MCF-7 breast carcinoma (CRL-12584, RRID:CVCL_0031), MDA-MB-231 breast carcinoma (CRL-12532, RRID:CVCL_0062), NCI-H1876 small cell lung carcinoma (CRL-5902, RRID:CVCL_1503), NCI-H510A small cell lung carcinoma (HTB-184, RRID:CVCL_1565), NCI-H1417 (CRL-5869, RRID:CVCL_1469), and NCI-H196 small cell lung carcinoma (CRL-5823, RRID:CVCL_1509). Dr. Peter Houghton (Greehey Children's Cancer Research Institute, University of Texas Health Science Center, San Antonio, TX) provided Rh-18 rhabdomyosarcoma (RRID:CVCL_1659). Pooled donor human umbilical vein endothelial cells (HUVEC, Lonza, cat. CC-2519) and human mesenchymal stem cells (hMSC, Lonza, cat. PT-2501) were purchased from Lonza (Walkersville, MD).
Cell Culture. […]

[1] = second compound 0.00949 µM, first compound 0.0316 µM
[2] = second compound 0.00949 µM, first compound 0.1 µM
[3] = second compound 0.03 µM, first compound 0.0316 µM
[4] = second compound 0.03 µM, first compound 0.1 µM
[5] = second compound 0.0949 µM, first compound 0.0316 µM
[6] = second compound 0.0949 µM, first compound 0.1 µM
[7] = second compound 0.3 µM, first compound 0.0316 µM
[8] = second compound 0.3 µM, first compound 0.1 µM
[9] = second compound 0.949 µM, first compound 0.0316 µM
[10] = second compound 0.949 µM, first compound 0.1 µM
[11] = second compound 3 µM, first compound 0.0316 µM
[12] = second compound 3 µM, first compound 0.1 µM
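Further: compound exposure lasted 7 days starting three days after spheroid seeding.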
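Wherever viability, T/C is given: 100% = DMSO vehicle control wells with viability set relative to vehicle.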

Cn1ncnc1[C@H]1c2n[nH]c(=O)c3cc(F)cc(c23)N[C@@H]1c1ccc(F)cc1 + CCN1C(C(=O)NC23CCC(C(=O)O)(CC2)CC3)C(c2cccc(Cl)c2F)C2(C(=O)Nc3cc(Cl)ccc32)C12CCCCC2
inactive: viability, T/C (second compound 0.00949 µM, first compound 0.000316 µM) 114% | viability, T/C (second compound 0.00949 µM, first compound 0.001 µM) 104% | viability, T/C (second compound 0.00949 µM, first compound 0.00316 µM) 108% | viability, T/C (second compound 0.00949 µM, first compound 0.01 µM) 113% | viability, T/C [1] 112% | viability, T/C [2] 98.3% | viability, T/C (second compound 0.03 µM, first compound 0.000316 µM) 124% | viability, T/C (second compound 0.03 µM, first compound 0.001 µM) 116% | viability, T/C (second compound 0.03 µM, first compound 0.00316 µM) 122% | viability, T/C (second compound 0.03 µM, first compound 0.01 µM) 105% | viability, T/C [3] 116% | viability, T/C [4] 108% | viability, T/C (second compound 0.0949 µM, first compound 0.000316 µM) 123% | viability, T/C (second compound 0.0949 µM, first compound 0.001 µM) 116% | viability, T/C (second compound 0.0949 µM, first compound 0.00316 µM) 104% | viability, T/C (second compound 0.0949 µM, first compound 0.01 µM) 96.6% | viability, T/C [5] 103% | viability, T/C [6] 102% | viability, T/C (second compound 0.3 µM, first compound 0.000316 µM) 115% | viability, T/C (second compound 0.3 µM, first compound 0.001 µM) 118% | viability, T/C (second compound 0.3 µM, first compound 0.00316 µM) 125% | viability, T/C (second compound 0.3 µM, first compound 0.01 µM) 108% | viability, T/C [7] 114% | viability, T/C [8] 77.7% | viability, T/C (second compound 0.949 µM, first compound 0.000316 µM) 118% | viability, T/C (second compound 0.949 µM, first compound 0.001 µM) 114% | viability, T/C (second compound 0.949 µM, first compound 0.00316 µM) 110% | viability, T/C (second compound 0.949 µM, first compound 0.01 µM) 113% | viability, T/C [9] 117% | viability, T/C [10] 93.1% | viability, T/C (second compound 3 µM, first compound 0.000316 µM) 118% | viability, T/C (second compound 3 µM, first compound 0.001 µM) 109% | viability, T/C (second compound 3 µM, first compound 0.00316 µM) 96% | viability, T/C (second compound 3 µM, first compound 0.01 µM) 105% | viability, T/C [11] 96.9% | viability, T/C [12] 85.8%
< 7.00: pIC50 (second compound 0.00949 µM) | pIC50 (second compound 0.03 µM) | pIC50 (second compound 0.0949 µM) | pIC50 (second compound 0.3 µM) | pIC50 (second compound 0.949 µM) | pIC50 (second compound 3 µM)

O=C(c1cc(Cc2n[nH]c(=O)c3ccccc23)ccc1F)N1CCN(C(=O)C2CC2)CC1 + CCN1C(C(=O)NC23CCC(C(=O)O)(CC2)CC3)C(c2cccc(Cl)c2F)C2(C(=O)Nc3cc(Cl)ccc32)C12CCCCC2
inactive: viability, T/C [1] 106% | viability, T/C [2] 107% | viability, T/C (second compound 0.00949 µM, first compound 0.316 µM) 113% | viability, T/C (second compound 0.00949 µM, first compound 1 µM) 110% | viability, T/C (second compound 0.00949 µM, first compound 3.16 µM) 110% | viability, T/C (second compound 0.00949 µM, first compound 10 µM) 91.5% | viability, T/C [3] 103% | viability, T/C [4] 111% | viability, T/C (second compound 0.03 µM, first compound 0.316 µM) 106% | viability, T/C (second compound 0.03 µM, first compound 1 µM) 106% | viability, T/C (second compound 0.03 µM, first compound 3.16 µM) 107% | viability, T/C (second compound 0.03 µM, first compound 10 µM) 95.8% | viability, T/C [5] 113% | viability, T/C [6] 107% | viability, T/C (second compound 0.0949 µM, first compound 0.316 µM) 111% | viability, T/C (second compound 0.0949 µM, first compound 1 µM) 108% | viability, T/C (second compound 0.0949 µM, first compound 3.16 µM) 116% | viability, T/C (second compound 0.0949 µM, first compound 10 µM) 100% | viability, T/C [7] 116% | viability, T/C [8] 107% | viability, T/C (second compound 0.3 µM, first compound 0.316 µM) 117% | viability, T/C (second compound 0.3 µM, first compound 1 µM) 117% | viability, T/C (second compound 0.3 µM, first compound 3.16 µM) 103% | viability, T/C (second compound 0.3 µM, first compound 10 µM) 97.5% | viability, T/C [9] 112% | viability, T/C [10] 106% | viability, T/C (second compound 0.949 µM, first compound 0.316 µM) 122% | viability, T/C (second compound 0.949 µM, first compound 1 µM) 95.4% | viability, T/C (second compound 0.949 µM, first compound 3.16 µM) 109% | viability, T/C (second compound 0.949 µM, first compound 10 µM) 85.1% | viability, T/C [11] 102% | viability, T/C [12] 105% | viability, T/C (second compound 3 µM, first compound 0.316 µM) 107% | viability, T/C (second compound 3 µM, first compound 1 µM) 105% | viability, T/C (second compound 3 µM, first compound 3.16 µM) 92.4% | viability, T/C (second compound 3 µM, first compound 10 µM) 93.3%
< 5.00: pIC50 (second compound 0.00949 µM) | pIC50 (second compound 0.03 µM) | pIC50 (second compound 0.0949 µM) | pIC50 (second compound 0.3 µM) | pIC50 (second compound 0.949 µM) | pIC50 (second compound 3 µM)
